Source: PMC11995226, “Linker-Determined Folding and Hydrophobic Interactions Explain a Major Difference in PROTAC Cell Permeability” (ACS Medicinal Chemistry Letters, 2025)
Converted amounts (≈) assume the structure as drawn. Like-named read-outs stand apart in the source and are kept apart here.

Key:
[1] = parameters: method as in PMID 39693386; conditions: logarithm of Pe; Data reported recently; cited from earlier work
[2] = parameters: method as in PMID 39693386; conditions: Data reported recently; cited from earlier work
[3] = EPSA (experimental polar surface area, chromatographic); format: physicochemical
Experimental: 1. Experimental and Computational Methods […]
EPSA. EPSA retention times for 1 and 2 were determined at Sygnature Discovery. In brief, the
EPSA assay was performed on a Waters Acquity UPC2 system equipped with a PDA and a
QDa detector, using a Phenomenex Chirex (S)-VAL and (R)-NEA LC column (50 x 4.6 mm).
A gradient of MeOH, containing 20 mM ammonium formate, in CO2 was used as eluent.

[4] = FaSSIF and FeSSIF solubility; format: physicochemical
Experimental: 1. Experimental and Computational Methods
Fasted and Fed State Simulated Intestinal Fluid (FaSSIF and FeSSIF) Solubility.
Suspensions of amorphous 1 and 2 were stirred at 37 °C in FaSSIF and FeSSIF for 24 h ± 4 h
prior to filtration and analysis of the filtrate. The solubility was determined via HPLC-MS
analysis of the filtrate using a calibration curve (external standard). […]

[5] = FaSSIF, pH 6.5, 37 °C, read-out: Solubility FaSSIF, pH 6.5
[6] = FeSSIF, pH 5.0, 37 °C, read-out: Solubility FeSSIF, pH 5.0

| SMILES | PAMPA Log[Pe (cm/s)] [1] | Solubility PBS, pH 6.5 [2] [μM] | EPSA [3] [A^2] | solubility at 24 h [4, 5] [µM] | solubility at 24 h [4, 6] [µM] |
| --- | --- | --- | --- | --- | --- |
| Cc1ncsc1-c1ccc(CNC(=O)[C@@H]2C[C@@H](O)CN2C(=O)[C@@H](NC(=O)CCCCCCCCOc2cnc3c(C4CCN(C(=O)c5ccc(OC(F)(F)F)cc5)CC4)ncnc3c2)C(C)(C)C)cc1 [PROTAC 1] | -8.3 log10(Pe in cm/s) | < 0.1 | 93.1 | 18.6 (≈ 18.4 µg/mL) | 174 (≈ 172 µg/mL) |
| Cc1ncsc1-c1ccc(CNC(=O)[C@@H]2C[C@@H](O)CN2C(=O)[C@@H](NC(=O)CCOCCOCCOc2cnc3c(C4CCN(C(=O)c5ccc(OC(F)(F)F)cc5)CC4)ncnc3c2)C(C)(C)C)cc1 [PROTAC 2] | -5.4 log10(Pe in cm/s) | – | 91.5 | 53.2 (≈ 52.7 µg/mL) | 349 (≈ 346 µg/mL) |
